Test results: patent publication US12186332B2, “Methods for overcoming WNT/beta-catenin anti-cancer resistance in leukemia stem cells” (STOWERS INSTITUTE FOR MEDICAL RESEARCH, priority 2019, dated 2025)

Assays:
[1] = system: functional, tumorigenic LSCs; experiment: Tumorigenic assay: BM of treated leukemic mice transplanted into NSG recipients; format: in vivo, mouse; conditions: [Low]DXR alone; nearly 6 months post-transplant
Procedure: At 12 days post-treatment, BM was harvested from treated mice and transplanted into sub-lethally irradiated NSG recipients. Treatment and transplantation schematic and Kaplan-Meier curves of recipient mice were shown. Red arrow indicates day 0 in survival curve.
The free [Low]DXR treatment group (solid line) from FIG. 5F is shown for comparison (n=30 per group).
Tumorigenic assays were performed by transplanting 0.5, 1.5, or 4.5×10^4 bone marrow cells from treated mice at 12 days post-treatment into 3.25 Gy irradiated NSG recipient mice. 10 recipients were used for each dose from each group. One male and one female donor was used for each group. Leukemia was assessed in mice euthanized due to poor health by analyzing CD45^HiCD^3+ cell frequency. Mice having >20% Blasts in the bone marrow were considered leukemic. NSG and Ptprc mice were originally obtained from The Jackson Laboratory.

[2] = system: leukemia (T-ALL) in Pten:β-cat^Act mice; experiment: Long-term survival of treated leukemic mice; format: in vivo, mouse
Procedure: Treatment schematic and Kaplan-Meier curves of leukemic mice treated as indicated. Red arrow indicates day 0 in survival curve.
Dashed line indicates day of final [Low]nanoDXR treatment.
Chemotherapy for the animal model consisted of Nelarabine (Selleck) and Dexamethasone (BioVision) administered daily for 5 days consecutively. 43.4 mg/ml Nelarabine was administered intravenously via the tail vain according to the formula: Body Weight (g)×5=volume to inject (μl), which yielded 217 mg/kg. 2.5 mg/ml Dexamethasone was injected intraperitoneally according to the formula: Body Weight (g)×4=volume to inject (μl), yielding 10 mg/kg. […] [Low] NanoDXR treatment used doxorubicin nanoparticles (Tran et al. 2014) administered as a single IV injection once per week on day 1 relative to above treatments using 0.8 mg/kg. Maintenance [Low] NanoDXR consisted of once per week injections of 0.4 mg/kg. Groups combining Nelarabine with Doxorubicin used a single injection containing both drugs. All drugs were solubilized in 45% (2-Hydroxypropyl)-p-cyclodextrin (HBC) or 0.9% NaCl.

[3] = system: BM cells isolated from leukemic double mutants (LSCs, HSPCs); experiment: In vitro treatment of BM cells from leukemic mice; format: cell-based, mouse; conditions: 11, 33 or 100 nM, 72 hours
Procedure: Doxorubicin, 0105375, and thioguanosine were added to 11, 33 or 100 nM and cultured for 72 hours and analyzed by flow cytometry for LSCs as in FIGS. 1A-1E. Fold change before and after culture for each population is indicated relative to equivalent vehicle control concentrations.
Doxorubicin, 0105375, and thioguanosine were added to 11, 33 or 100 nM and cultured for 72 hours and analyzed by flow cytometry for HSPCs as in FIGS. 1A-1E. Fold change before and after culture for each population is indicated relative to equivalent vehicle control concentrations.
Bone marrow cells from leukemic mice at 8 weeks post-induction were cultured overnight at 5-20×10^4 cells per well in 96-well U-bottom tissue culture plates (Becton, Dickinson and Company; Cat. No. 353077) in HSC expansion media in low O2 conditions as previously described (Perry et al. 2011). Doxorubicin (Sigma; D1515), 0105375 (University of Kansas CMLD compound), or Thioguanosine was mixed with HSC expansion media and added to the cultures to obtain final concentrations of 11, 33, 100 nM. Equivalent amounts of DMSO alone (vehicle control) were added to parallel cultures for comparison. Half-media changes were performed approximately every 24 hours. Cultures were analyzed after 72 hours exposure to the indicated drug.

[4] = system: LSCs and HSPCs transcriptome; experiment: RNA-seq of populations sorted from treated leukemic mice; format: in vivo, mouse
Procedure: HSPCs, LSCs, and blast cells were sorted by FACS at […] post-treatment of leukemic mice; representative sorting gates are shown. Note distinct LSC population (compare to isotype) in vehicle versus low-dose DXR+chemotherapy treatment when LSCs show very low frequency. Other plots are from vehicle control. To obtain sufficient cells from the clinical DXR sample, the 5×4 […] DXR daily dosing schedule was used.
Data from two biological replicates of each, differing by <0.3 standard deviations, are shown.
Cohorts of leukemic mice were treated with vehicle, chemotherapy, [Low]DXR, clinical-dose DXR or chemotherapy+[Low]DXR as in FIG. 8. At 10 days post-treatment (day 1=start of treatment), blast cells, LSCs, and HSPCs were sorted using stringent gates (see FIG. 4A) for these populations. For each population, two biological replicates were made with 1-3 technical replicates each. Each biological replicate was a pool of sorted cells from 4-5 male and 4-5 female mice. Technical replicates were samples of sorted cells from each biological replicate. 1,000 cells per sample were sorted into 96-well plates with 7 μl lysis buffer containing RNase inhibitor (2 U/μl) from BM. First-strand cDNA synthesis and cDNA libraries were constructed using the SMARTer ultra low input RNA kit for sequencing—v3 (Clontech) following the manufacturer's instructions. cDNA quality was determined by Agilent high sensitivity DNA kit on Agilent 2100 BioAnalyzer (Agilent Technologies). Libraries were sequenced at 50 bp on the Illumina HiSeq 2500. Reads were aligned to UCSC mm10 with Tophat 2.1.1 (Kim et al. 2013), using gene models from Ensembl 80. Read counts per gene were obtained with HTSeq-count 0.6.0 (Anders et al. 2015). Analysis was done in R with the EdgeR package (Robinson et al. 2010) using default methods. […] Data can be accessed at https://www.ncbi.nlm.nih.qov/geo/query/acc.cqi?acc=GSE105049.

## COc1cccc2c1C(=O)c1c(O)c3c(c(O)c1C2=O)C[C@@](O)(C(=O)CO)C[C@@H]3O[C@H]1C[C@H](N)[C@H](O)[C@H](C)O1 [DXR, doxorubicin]
[1]
  recipients that remained healthy: 27/30
[2]; clinical-dose DXR combined with chemotherapy
  survival compared to vehicle alone: significantly reduced survival
[2]; mouse, in vivo
  improvement of survival: did not
[3]
  effect on HSPCs relative to vehicle: lower effect
  effect on LSCs relative to vehicle: significantly reduced
[4]; [Low]DXR
  Hallmark MYC targets in LSCs: reduced
  most highly enriched terms in LSCs compared to control or chemotherapy: upregulation of immune-related terms
[4]; clinical DXR
  expression of resistance pathways, LSCs versus HSPCs: increased expression of oncogenic signaling and other resistance pathways
